Measurements reported in patent US11884647B2, “Compounds and methods for targeting pathogenic blood vessels” (THE REGENTS OF THE UNIVERSITY OF CALIFORNIA, priority 2019, dated 2024).

System: tumor endothelial cells (LL/2 lung cancer tumor)
Assay: Lung LL2 ex vivo model of tumor angiogenesis
Type: cell-based, mouse
Details: Lung LL2 ex vivo; Conc. 20 μm; 48 hrs
Procedure, shortened: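 Mouse LL2 tumor fragments (~0.5×0.5×0.3 mm) embedded in Matrigel and grown in endothelial growth medium at 37° C until endothelial outgrowth (about 4 days) before drug treatment. About 48 h after drug addition, stained 10 min with fluorescein diacetate/propidium iodide; live (green) and dead (red) cells imaged at 2× with fixed channel settings.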

`CCCCCCCCCCCCCCOc1ccc(S(=O)(=O)c2cnc3ccc([S](C)[O])cc3c2N2CCC(N3CCC(N4CCCC(O)C4)CC3)CC2)cc1` (centres unmarked) [compound 348, 1″-(6-(methyl(λ^1-oxidanyl)-λ^3-sulfanyl)-3-((4-(tetradecyloxy)phenyl)sulfonyl)quinolin-4-yl)-[1,4′:1′,4″-terpiperidin]-3-ol] was tested, and the “48 hrs (morphology observations after 48 hours)” value was “* (50% or less of cells vesicularize in cell shape)”.

Same assay, conditions: Lung LL2 ex vivo; Conc. 20 μm; drug treatment two days

`CCCCCCCCCCCCCCOc1ccc(S(=O)(=O)c2cnc3ccc([S](C)[O])cc3c2N2CCC(N3CCC(N4CCCC(O)C4)CC3)CC2)cc1` (centres unmarked) [compound 348, 1″-(6-(methyl(λ^1-oxidanyl)-λ^3-sulfanyl)-3-((4-(tetradecyloxy)phenyl)sulfonyl)quinolin-4-yl)-[1,4′:1′,4″-terpiperidin]-3-ol] gave a Cell death of 20%.

Same assay, conditions: Lung LL2 ex vivo; Conc. 40 μm; drug treatment two days

Compared with `COc1ccc(S(=O)(=O)c2cnc3cc(OC)c(OC)cc3c2N2CCCN(c3nc4ccc(Cl)cc4s3)CC2)cc1` [compound 327, 6-chloro-2-(4-(6,7-dimethoxy-3-((4-methoxyphenyl)sulfonyl)quinolin-4-yl)-1,4-diazepan-1-yl)benzo[d]thiazole], `CCCCOc1ccc(S(=O)(=O)c2cnc3ccc(SC)cc3c2N2CCCN(CCO)CC2)cc1` [compound 351, 2-(4-(3-((4-butoxyphenyl)sulfonyl)-6-(methylthio)quinolin-4-yl)-1,4-diazepan-1-yl)ethan-1-ol] is higher in Cell death: 20% for the first, 100% for the second.

Compared with `CCCCOc1ccc(S(=O)(=O)c2cnc3ccc(SC)cc3c2N2CCC(N3CCCC3CO)CC2)cc1` (centres unmarked) [compound 350, (1-(1-(3-((4-butoxyphenyl)sulfonyl)-6-(methylthio)quinolin-4-yl)piperidin-4-yl)pyrrolidin-2-yl)methanol], `CCCCOc1ccc(S(=O)(=O)c2cnc3ccc(SC)cc3c2N2CCCN(CC3(O)CCCC3)CC2)cc1` [compound 354, 1-((4-(3-((4-butoxyphenyl)sulfonyl)-6-(methylthio)quinolin-4-yl)-1,4-diazepan-1-yl)methyl)cyclopentan-1-ol] is lower in Cell death: 20% for the first, 0% for the second.

First: CCCCOc1ccc(S(=O)(=O)c2cnc3ccc(SC)cc3c2N2CCC3C(COCCN3CC(C)C)C2)cc1 (centres unmarked) [compound 352, 7-(3-((4-butoxyphenyl)sulfonyl)-6-(methylthio)quinolin-4-yl)-1-isobutyldecahydropyrido[4,3-e][1,4]oxazepine]
Second: CCCCOc1ccc(S(=O)(=O)c2cnc3ccc(SC)cc3c2N2CCCN(S(=O)(=O)NCC(F)(F)F)CC2)cc1 [compound 353, 4-(3-((4-butoxyphenyl)sulfonyl)-6-(methylthio)quinolin-4-yl)-N-(2,2,2-trifluoroethyl)-1,4-diazepane-1-sulfonamide]
The Cell death of the first is higher: 100% for the first, 0% for the second.

Same assay, conditions: Mus musculus, Endothelial cell, 48 h, read-out: Cell death

Compared with `COc1ccc(C2CCN(c3c(S(=O)(=O)c4ccc(OC)cc4)cnc4cc(OC)c(OC)cc34)CC2)cc1` [compound 311, 6,7-dimethoxy-4-(4-(4-methoxyphenyl)piperidin-1-yl)-3-((4-methoxyphenyl)sulfonyl)quinoline], `COc1ccc(S(=O)(=O)c2cnc3cc(OC)c(OC)cc3c2N2CCC(c3ccc(CN4CCCC4)cc3)CC2)cc1` [compound 312, 6,7-dimethoxy-3-((4-methoxyphenyl)sulfonyl)-4-(4-(4-(pyrrolidin-1-ylmethyl)phenyl)piperidin-1-yl)quinoline] is higher in cytotoxicity at 40 µM: 30% for the first, 100% for the second.

`CCOC(=O)c1ccc(N2CCN(c3c(S(=O)(=O)c4ccc(OC)cc4)cnc4cc(OC)c(OC)cc34)CC2)cc1` [compound 317, ethyl 4-(4-(6,7-dimethoxy-3-((4-methoxyphenyl)sulfonyl)quinolin-4-yl)piperazin-1-yl)benzoate] and `COc1ccc(N2CCN(c3c(S(=O)(=O)c4ccc(OC)cc4)cnc4cc(OC)c(OC)cc34)CC2=O)cc1` [compound 318] are the same in cytotoxicity at 40 µM: 30% for the first, 30% for the second.

Going from `COc1ccc(S(=O)(=O)c2cnc3cc(OC)c(OC)cc3c2N2CCC(N3CCCCC3)CC2)cc1` [compound 320, 4-([1,4′-bipiperidin]-1′-yl)-6,7-dimethoxy-3-((4-methoxyphenyl)sulfonyl)quinoline] to `COc1ccc(S(=O)(=O)c2cnc3cc(OC)c(OC)cc3c2N2CCCN(C3CCSCC3)CC2)cc1` [compound 329, 6,7-dimethoxy-3-((4-methoxyphenyl)sulfonyl)-4-(4-(tetrahydro-2H-thiopyran-4-yl)-1,4-diazepan-1-yl)quinoline], the cytotoxicity at 40 µM rises from 30% to 40%.

Going from `COc1ccc(S(=O)(=O)c2cnc3cc(OC)c(OC)cc3c2N2CCC(N3CCCC3=O)CC2)cc1` [compound 321, 1-(1-(6,7-dimethoxy-3-((4-methoxyphenyl)sulfonyl)quinolin-4-yl)piperidin-4-yl)pyrrolidin-2-one] to `COc1ccc(S(=O)(=O)c2cnc3cc(OC)c(OC)cc3c2N2CCC(N3CCCC3CO)CC2)cc1` (centres unmarked) [compound 322, (1-(1-(6,7-dimethoxy-3-((4-methoxyphenyl)sulfonyl)quinolin-4-yl)piperidin-4-yl)pyrrolidin-2-yl)methanol], the cytotoxicity at 40 µM falls from 40% to 30%.

`COc1ccc(S(=O)(=O)c2cnc3cc(OC)c(OC)cc3c2N2CCCN(CCO)CC2)cc1` [compound 323, 2-(4-(6,7-dimethoxy-3-((4-methoxyphenyl)sulfonyl)quinolin-4-yl)-1,4-diazepan-1-yl)ethan-1-ol] and `COc1ccc(S(=O)(=O)c2cnc3cc(OC)c(OC)cc3c2N2CCCN(CC3(O)CCCC3)CC2)cc1` [compound 325, 1-((4-(6,7-dimethoxy-3-((4-methoxyphenyl)sulfonyl)quinolin-4-yl)-1,4-diazepan-1-yl)methyl)cyclopentan-1-ol] are the same in cytotoxicity at 40 µM: 30% for the first, 30% for the second.

First: COc1ccc(S(=O)(=O)c2cnc3cc(OC)c(OC)cc3c2N2CCC3C(COCCN3CC(C)C)C2)cc1 (centres unmarked) [compound 324, 7-(6,7-dimethoxy-3-((4-methoxyphenyl)sulfonyl)quinolin-4-yl)-1-isobutyldecahydropyrido[4,3-e][1,4]oxazepine]
Second: COc1ccc(S(=O)(=O)c2cnc3cc(OC)c(OC)cc3c2N2CCCN(C3COC3)CC2)cc1 [compound 326, 6,7-dimethoxy-3-((4-methoxyphenyl)sulfonyl)-4-(4-(oxetan-3-yl)-1,4-diazepan-1-yl)quinoline]
The cytotoxicity at 40 µM of the first is higher: 60% for the first, 30% for the second.

Going from `COc1ccc(S(=O)(=O)c2cnc3cc(OC)c(OC)cc3c2N2CCC(=O)N(C)CC2)cc1` [compound 328, 1-(6,7-dimethoxy-3-((4-methoxyphenyl)sulfonyl)quinolin-4-yl)-4-methyl-1,4-diazepan-5-one] to `COc1ccc(S(=O)(=O)c2cnc3cc(OC)c(OC)cc3c2N2CCCN(C3CCS(=O)(=O)CC3)CC2)cc1` [compound 330, 4-(4-(6,7-dimethoxy-3-((4-methoxyphenyl)sulfonyl)quinolin-4-yl)-1,4-diazepan-1-yl)tetrahydro-2H-thiopyran 1,1-dioxide], the cytotoxicity at 40 µM rises from 30% to 50%.

First: COc1ccc(S(=O)(=O)c2cnc3ccc(C(=O)N(C)C)cc3c2N2CCC(N3CCCCC3)CC2)cc1 [compound 331, 4-([1,4′-bipiperidin]-1′-yl)-3-((4-methoxyphenyl)sulfonyl)-N,N-dimethylquinoline-6-carboxamide]
Second: COc1ccc(S(=O)(=O)c2cnc3ccc(C(=O)N(C)C)cc3c2N2CCC(N3CCCC3=O)CC2)cc1 [compound 332, 3-((4-methoxyphenyl)sulfonyl)-N,N-dimethyl-4-(4-(2-oxopyrrolidin-1-yl)piperidin-1-yl)quinoline-6-carboxamid]
The cytotoxicity at 40 µM of the first is higher: 10% for the first, 0% for the second.

`COc1ccc(S(=O)(=O)c2cnc3ccc(C(=O)N(C)C)cc3c2N2CCCN(CC(=O)N(C)C)CC2)cc1` [compound 333, 4-(4-(2-(dimethylamino)-2-oxoethyl)-1,4-diazepan-1-yl)-3-((4-methoxyphenyl)sulfonyl)-N,N-dimethylquinoline-6-carboxamide] and `CNC(=O)c1ccc2ncc(S(=O)(=O)c3ccc(OC)cc3)c(N3CCC(N4CCCC4CO)CC3)c2c1` (centres unmarked) [compound 336, 4-(4-(2-(hydroxymethyl)pyrrolidin-1-yl)piperidin-1-yl)-3-((4-methoxyphenyl)sulfonyl)-N-methylquinoline-6-carboxamide] are the same in cytotoxicity at 40 µM: 0% for the first, 0% for the second.

Compared with `CCCCCCCCCCCCOc1ccc(S(=O)(=O)c2cnc3ccc([S+](C)[O-])cc3c2N2CCC(N3CCN(CCO)CC3)CC2)cc1` (centres unmarked) [compound 339, 2-(4-(1-(3-((4-(dodecyloxy)phenyl)sulfonyl)-6-(methylsulfinyl)quinolin-4-yl)piperidin-4-yl)piperazin-1-yl)ethan-1-ol], `CCCCCCCCCCCCCCOc1ccc(S(=O)(=O)c2cnc3ccc([S+](C)[O-])cc3c2N2CCC(N3CCN(CCO)CC3)CC2)cc1` (centres unmarked) [compound 344, 2-(4-(1-(6-(methylsulfinyl)-3-((4-(tetradecyloxy)phenyl)sulfonyl)quinolin-4-yl)piperidin-4-yl)piperazin-1-yl)ethan-1-ol] is lower in cytotoxicity at 20 µM: 50% for the first, 10% for the second.

Going from `CCCCCCCCCCCCOc1ccc(S(=O)(=O)c2cnc3ccc([S+](C)[O-])cc3c2N2CCC(N3CCC(N4CCN(CCO)CC4)CC3)CC2)cc1` (centres unmarked) [compound 340, 2-(4-(1′-(3-((4-(dodecyloxy)phenyl)sulfonyl)-6-(methylsulfinyl)quinolin-4-yl)-[1,4′-bipiperidin]-4-yl)piperazin-1-yl)ethan-1-ol] to `CCCCCCCCCCCCCCOc1ccc(S(=O)(=O)c2cnc3ccc([S+](C)[O-])cc3c2N2CCC(N3CCC(N4CCN(CCO)CC4)CC3)CC2)cc1` (centres unmarked) [compound 345, 2-(4-(1′-(6-(methylsulfinyl)-3-((4-(tetradecyloxy)phenyl)sulfonyl)quinolin-4-yl)-[1,4′-bipiperidin]-4-yl)piperazin-1-yl)ethan-1-ol], the cytotoxicity at 20 µM falls from 60% to 50%.

First: CCCCCCCCCCCCOc1ccc(S(=O)(=O)c2cnc3ccc([S+](C)[O-])cc3c2N2CCC(N3CCC(N4CCN(C)CC4)CC3)CC2)cc1 (centres unmarked) [compound 341, 3-((4-(dodecyloxy)phenyl)sulfonyl)-4-(4-(4-methylpiperazin-1-yl)-[1,4′-bipiperidin]-1′-yl)-6-(methylsulfinyl)quinoline]
Second: CCCCCCCCCCCCOc1ccc(S(=O)(=O)c2cnc3ccc([S+](C)[O-])cc3c2N2CCC(N3CCC(N4CCCC(O)C4)CC3)CC2)cc1 (centres unmarked) [compound 343, 1″-(3-((4-(dodecyloxy)phenyl)sulfonyl)-6-(methylsulfinyl)quinolin-4-yl)-[1,4′:1′,4″-terpiperidin]-3-ol]
The cytotoxicity at 20 µM of the first is higher: 80% for the first, 50% for the second.
